Laboratory results reported in patent US7345033B2, “Carbamoyl-and thiocarbamoyl-phosphonates and pharmaceutical compositions comprising them” (Yissum Research Development Company of the Hebrew …, priority 2003, dated 2008).
Where two headings read alike, the source gives them in different places.

Tests used:
[1] = test system: cancer cells; assay: Matrigel chemoinvasion assay (Boyden chambers); type: cell-based; settings: 6 h, read-out: Chemoinvasion % inhibition at 50 μM
Description: Matrigel Chemoinvasion Assay
This assay measures in vitro the potency of the compounds to repress the invasiveness of cancer cells, by inhibiting the MMPs produced by them. The assay uses a reconstituted basement membrane preparation, which is similar to the natural basement membranes that the tumor cells have to cross, in order to disseminate. The compounds examined have been added to the invasion chambers at various concentrations, and the resulted invasion was compared to untreated preparations.
Description of the of the Matrigel Chemoinvasion Experiment
a) The chemoinvasion assays were performed in Boyden chambers. Matrigel (25 μg) was dried on a polycarbonated filter (PVP free, Nucleopore). Fibroblast conditioned medium (obtained from confluent NIH-3T3 cells cultured in serum free DMEM) is used as the chemoattractant. […] The chambers were incubated in a humidified incubator at 37° C. in 5% CO2/95% air atmosphere for 6 h. The cells, which traversed the Matrigel layer and attached to the lower surface of the filter, were stained with Diff Quick (American Scientific Products) and counted.
The various compounds were examined as potential inhibitors at three concentrations: 100 μM, 50 μM and 10 μM.

[2] = target: T1, recombinant MMP-2 (Homo sapiens, UniProt P08253); assay: MMP inhibitory potency in vitro, succinylated-gelatin colorimetric assay; type: biochemical; settings: for times more active on MMP-2 than its analog or isomer: 11 vs 6, 9 vs 9a, 10 vs 10a, 11 vs 11a
T1 construct: purchased
T1 sequence (P08253 110-660): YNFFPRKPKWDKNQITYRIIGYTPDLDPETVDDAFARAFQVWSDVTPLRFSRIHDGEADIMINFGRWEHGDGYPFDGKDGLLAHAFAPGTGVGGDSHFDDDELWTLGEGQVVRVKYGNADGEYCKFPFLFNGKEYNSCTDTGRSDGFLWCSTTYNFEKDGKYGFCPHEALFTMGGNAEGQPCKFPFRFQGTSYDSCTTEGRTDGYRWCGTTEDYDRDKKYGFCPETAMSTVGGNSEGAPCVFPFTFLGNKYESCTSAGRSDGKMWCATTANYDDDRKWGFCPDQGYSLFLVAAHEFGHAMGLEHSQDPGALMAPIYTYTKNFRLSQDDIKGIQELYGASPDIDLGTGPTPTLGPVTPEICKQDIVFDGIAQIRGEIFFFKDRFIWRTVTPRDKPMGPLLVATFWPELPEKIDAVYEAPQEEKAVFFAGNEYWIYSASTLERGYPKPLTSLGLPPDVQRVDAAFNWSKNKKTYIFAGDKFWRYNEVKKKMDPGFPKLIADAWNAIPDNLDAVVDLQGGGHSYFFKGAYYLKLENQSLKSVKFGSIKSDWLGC
Method: (§1) Determination of MMP Inhibitory Potency (IC50 Values) in vitro
(§2) The commercially available recombinant MMP-2 and MMP-9 enzymes were incubated with succinylated-gelatin at four different concentrations for 3 h. The examined compounds were added at four to six different concentrations to the recombinant enzymes and the inhibitory potencies were expressed in a colorimetric change measured by an ELISA reader. The inhibitory activity (IC50) was calculated from the kinetic data obtained.

[3] = target: T2, recombinant MMP-9 (Homo sapiens, UniProt P14780); assay: as above; type: biochemical
T2 construct: purchased
Method: as §1, §2

[4] = test system: Endothelial cells; assay: Endothelial cell capillary tube formation; type: cell-based; settings: read-out: Capillary Formation Inhibition % At 50 μM
Description: Endothelial Cell Capillary Tube Formation
Some of the compounds were examined as to their potency to inhibit capillary formation, which is an in vitro model of angiogenesis, an essential step in the development of primary tumor and metastatic lesions. Endothelial cell migration to the newly formed tumor is the initial phase of angiogenesis, and is dependent on MMP expression. By using this assay that measures endothelial cell tube formation, the effects of some carbamoylphosphonates on angiogenesis at concentrations ranging from 100-5 μM were evaluated.
Description of the Endothelial Cell Capillary Tube Formation Experiment
Endothelial cells are harvested by 1 mM EDTA, and added to a Matrigel layer in a 24 well plate at 50,000 cells per well. After attachment, culture media (1 ml) is added and the plate is incubated as a monolayer culture. The plates are analyzed hourly using Hoffinan optics. This assay is used to evaluate inhibitory factors or stimulatory factors on capillary like structure formation, which may be added into the culture media.

[5] = test system: murine melanoma; assay: Tumor growth and metastasis in vivo, murine melanoma model; set-up: species or system mice; settings: for inhibition in vivo at 50 mg/kg: Mus musculus, 504 h; for oral bioavailability: values equal the PO % reduction in murine melanoma of Table 1
Description: Tumor Growth and Metastasis in Animal Models—in vivo Test
The abilities of the novel carbamoylphosphonates to inhibit the formation of metastatic lesions in vivo were examined in the murine melanoma model both by intraperitoneal (IP) and peroral (PO) administration. […] This is especially important, since oral administration is the most convenient one for the patient, especially for long term chronic treatments such as those envisaged for drugs that are the subject of this application.

[6] = target: T3, MMP-1 (Homo sapiens, UniProt P03956); assay: Selectivity towards different MMPs: MMP-1; type: biochemical; settings: Table 2
T3 sequence (P03956 100-469): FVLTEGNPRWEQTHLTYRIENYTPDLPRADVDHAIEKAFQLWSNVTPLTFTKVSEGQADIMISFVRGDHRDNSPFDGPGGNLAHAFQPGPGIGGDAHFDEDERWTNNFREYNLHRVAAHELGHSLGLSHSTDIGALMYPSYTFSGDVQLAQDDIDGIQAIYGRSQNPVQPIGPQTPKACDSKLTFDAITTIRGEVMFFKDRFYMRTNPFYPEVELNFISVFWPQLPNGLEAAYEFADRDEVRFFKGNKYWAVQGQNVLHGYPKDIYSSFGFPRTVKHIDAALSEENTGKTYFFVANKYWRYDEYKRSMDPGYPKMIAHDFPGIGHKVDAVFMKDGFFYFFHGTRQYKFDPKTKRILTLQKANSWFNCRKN

[7] = target: MMP-3 (Homo sapiens, UniProt P08254); assay: Selectivity towards different MMPs: MMP-3; type: biochemical; settings: Table 2
[8] = target: MMP-8 (Homo sapiens, UniProt P22894); assay: Selectivity towards different MMPs: MMP-8; type: biochemical; settings: Table 2
[9] = Acute in vivo toxicity in healthy mice; settings: daily for two weeks at 50, 250 and 500 mg/kg
Description: Determination of Acute in vivo Toxicity of Representative Carbamoylphosphonates

[10] = ip, read-out: In vivo murine melanoma % reduction IP
[11] = po, read-out: In vivo murine melanoma % reduction PO

MMP-8, sequence (P22894 101-467, species assumed): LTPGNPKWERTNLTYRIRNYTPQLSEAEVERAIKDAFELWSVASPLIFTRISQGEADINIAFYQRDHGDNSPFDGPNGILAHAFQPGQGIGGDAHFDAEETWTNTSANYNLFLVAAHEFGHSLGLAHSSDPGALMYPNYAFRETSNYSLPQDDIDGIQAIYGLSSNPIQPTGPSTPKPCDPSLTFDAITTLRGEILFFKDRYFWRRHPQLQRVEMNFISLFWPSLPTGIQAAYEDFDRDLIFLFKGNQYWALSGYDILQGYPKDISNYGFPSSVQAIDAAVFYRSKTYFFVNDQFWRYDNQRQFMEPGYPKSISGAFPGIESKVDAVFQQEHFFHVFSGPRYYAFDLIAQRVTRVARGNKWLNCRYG
MMP-3, sequence (P08254 100-477, species assumed): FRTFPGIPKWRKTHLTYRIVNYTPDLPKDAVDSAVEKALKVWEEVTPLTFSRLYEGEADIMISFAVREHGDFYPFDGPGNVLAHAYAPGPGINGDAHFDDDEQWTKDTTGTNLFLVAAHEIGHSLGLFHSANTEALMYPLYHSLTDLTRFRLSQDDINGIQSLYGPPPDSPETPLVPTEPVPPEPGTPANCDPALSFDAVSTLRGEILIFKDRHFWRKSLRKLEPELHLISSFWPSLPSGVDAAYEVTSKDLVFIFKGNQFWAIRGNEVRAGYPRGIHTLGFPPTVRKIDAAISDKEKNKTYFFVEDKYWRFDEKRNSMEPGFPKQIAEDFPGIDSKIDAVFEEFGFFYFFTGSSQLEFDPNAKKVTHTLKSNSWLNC
T2 sequence (P14780 94-707, species assumed): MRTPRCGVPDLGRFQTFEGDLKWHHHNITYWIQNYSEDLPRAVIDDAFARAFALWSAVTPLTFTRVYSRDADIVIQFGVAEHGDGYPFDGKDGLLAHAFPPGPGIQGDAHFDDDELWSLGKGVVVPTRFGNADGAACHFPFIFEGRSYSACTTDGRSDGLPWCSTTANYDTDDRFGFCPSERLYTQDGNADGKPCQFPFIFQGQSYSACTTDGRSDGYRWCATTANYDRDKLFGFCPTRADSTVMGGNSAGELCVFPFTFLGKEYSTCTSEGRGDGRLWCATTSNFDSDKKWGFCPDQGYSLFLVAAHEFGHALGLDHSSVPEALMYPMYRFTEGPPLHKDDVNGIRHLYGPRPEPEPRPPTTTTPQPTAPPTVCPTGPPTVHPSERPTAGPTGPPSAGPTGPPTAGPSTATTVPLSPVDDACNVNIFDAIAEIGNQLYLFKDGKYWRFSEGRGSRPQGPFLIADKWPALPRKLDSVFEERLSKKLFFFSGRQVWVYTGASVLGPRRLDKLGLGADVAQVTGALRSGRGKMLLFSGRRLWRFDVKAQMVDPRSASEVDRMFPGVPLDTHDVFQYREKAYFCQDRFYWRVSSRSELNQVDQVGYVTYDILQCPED

SMILES | inhibition at 50 µM [1] [%] | IC50 [2] [nM] | IC50 [3] [µM] | inhibition at 50 µM [4] [%] | inhibition in vivo at 50 mg/kg [5, 10] [%] | inhibition in vivo at 50 mg/kg [5, 11] [%] | IC50 [6] [nM] | IC50 [7] [nM] | IC50 [8] [nM] | melting point [°C] | IC50 ([2]; Table 1, read-out: MMP-2 IC50) [nM] | further results
O=C(N[C@@H]1C[C@@H]2CC[C@H]1C2)P(=O)(O)O (relative stereo) [Compound 10, N-[endo-2-norbornyl]carbamoylphosphonic acid] | 25 | 100 | > 100 | 30 | 87 | 80 | > 100000 | > 100000 | > 100000 | 164 to 165 |  | times more active on MMP-2 than its analog or isomer [2]: 150 times; IC50 ([3]; read-out: MMP-9 IC50 μM, Table 2): > 100 µM
O=C(N[C@@H]1C[C@H]2CC[C@@H]1C2)P(=O)(O)O (relative stereo) [Compound 10a, N-[exo-2-norbornyl]carbamoylphosphonic acid] |  | 15000 | > 100 |  |  |  | 1000 | > 100000 | > 100000 | 170 to 172 |  | 
N[C@H]1CCCC[C@@H]1NC(=O)P(=O)(O)O (relative stereo) [Compound 11a, Trans-2-aminocyclohexylcarbamoyl phosphonic acid] |  | 20000 | > 100 |  |  |  | 90000 | 25000 | 50000 |  |  | 
O=C(NC1CCCC1)P(=O)(O)O [Compound 1, CyclopentylNHCOPO3H2] | 65 |  |  | 70 | 72 | 71 |  |  |  |  | 80 | toxicity [9]: toxic at 250 mg/kg and 500 mg/kg doses
O=P(O)(O)C(=S)NC1CCCC1 [Compound 2, CyclopentylNHCSPO3H2] | 70 | 70 | 50 |  | 56 | 70 |  |  |  |  |  | 
O=C(NC1CCCCC1)P(=O)(O)O [Compound 3, CyclohexylNHCOPO3H2] | 46 |  |  | 50 | 64 |  |  |  |  |  | 3000 | 
O=P(O)(O)C(=S)NC1CCCCC1 [Compound 4, CyclohexylNHCSPO3H2] | 50 | 100 | > 100 | 38 | 68 |  |  |  |  |  |  | 
O=C(NCC1CCCCC1)P(=O)(O)O [Compound 5, cyclohexylmethyl carbamoylphosphonic acid] | 50 |  |  | 53 | 69 | 14 |  |  |  |  | 200 | IC50 ([3]; Table 1, read-out: MMP-9 IC50): 1 µM; oral bioavailability [5]: 14%
NCCNC(=O)P(=O)(O)O [Compound 6, H2N(CH2)2NHCOPO3H2] | 45 | 800 | 2 | 43 | 57 |  |  |  |  |  |  | 
CN(C)CCNC(=O)P(=O)(O)O [Compound 7, Me2N(CH2)2NHCOPO3H2] | 66 | 30 | 20 | 75 | 75 | 29 |  |  |  |  |  | 
O=P(O)(O)C(=S)NCC1CCCCC1 [Compound 8, N-(Cyclohexylmethyl)thiocarbamoylphosphonic acid] | 70 | 15 | 0.015 | 75 | 80 | 80 |  |  |  |  |  | oral bioavailability [5]: improved oral bioavailability
C[C@@H](NC(=O)P(=O)(O)O)C1CCCCC1 [Compound 9, N—[(R)-1-Cyclohexylethyl]carbamoylphosphonic acid] |  |  |  | 35 |  |  | > 100000 | > 100000 | > 100000 | 155 to 156 | 200 | inhibition at 50 µM ([1]; 50 μM, Matrigel): 33%; times more active on MMP-2 than its analog or isomer [2]: five times more active; IC50 ([2]; Table 2, read-out: MMP-2 IC50): 200 nM; IC50 ([3]; Table 1, read-out: MMP-9 IC50): ≥ 100 µM; IC50 ([3]; Table 2, read-out: MMP-9 IC50): > 100 µM; inhibition in vivo at 50 mg/kg ([5]; IP, 50 mg/kg daily for 21 days, lung tumors counted, read-out: In vivo murine melanoma % reduction IP): 68%; inhibition in vivo at 50 mg/kg ([5]; PO, 50 mg/kg daily for 21 days, lung tumors counted, read-out: In vivo murine melanoma % reduction PO): 90%; oral bioavailability [5]: 90%
C[C@H](NC(=O)P(=O)(O)O)C1CCCCC1 [Compound 9a] |  |  |  |  |  |  | 2000 | 100 | > 100000 | 167 to 168 |  | IC50 ([2]; Table 2, read-out: MMP-2 IC50): 1000 nM; IC50 ([3]; Table 2, read-out: MMP-9 IC50): 10 µM
